Laboratory results taken from ChEMBL document CHEMBL5724914, “Linking interpersonal differences in gut microbiota composition and drug biotransformation activity” (2024).

Experiment: (§1) The drug is tested on WLS-170 corresponding to human gut metagenome with ENA study accession number: PRJEB37062 and ENA sample accession number: ERS12561762 for biotransformation under anaerobic condition. The drug concentrations were measured over 9 timepoints collected between 0 and 24 hours of incubation by liquid-chromatography-coupled mass spectrometry (LC–MS)
Conditions: 2 µM
Note: call rule not given here.

Row | Structure (SMILES) | Bacterial Biotransformation
1 | CC(N)C12CC3CC(CC(C3)C1)C2 (stereo not given) [RIMANTADINE] | Compound metabolized
2 | CCN(C)C(=O)Oc1cccc([C@H](C)N(C)C)c1.O=C(O)C(O)C(O)C(=O)O [RIVASTIGMINE TARTRATE] | Compound NOT metabolized

Conditions: human gut metagenome, 24 h, 2 µM

Row | Structure (SMILES) | Bacterial Biotransformation
3 | CC(N)C12CC3CC(CC(C3)C1)C2 (stereo not given) [RIMANTADINE] | Compound NOT metabolized
4 | CCN(C)C(=O)Oc1cccc([C@H](C)N(C)C)c1.O=C(O)C(O)C(O)C(=O)O [RIVASTIGMINE TARTRATE] | Compound NOT metabolized

Experiment: as §1, with “WLS-086” for “WLS-170”, “ERS12561752” for “ERS12561762”
Conditions: 2 µM

Row | Structure (SMILES) | Bacterial Biotransformation
5 | CC(N)C12CC3CC(CC(C3)C1)C2 (stereo not given) [RIMANTADINE] | Compound NOT metabolized
6 | CCN(C)C(=O)Oc1cccc([C@H](C)N(C)C)c1.O=C(O)C(O)C(O)C(=O)O [RIVASTIGMINE TARTRATE] | Compound NOT metabolized

Conditions: human gut metagenome, 24 h, 2 µM
Remark: another data set of the same source

Row | Structure (SMILES) | Bacterial Biotransformation
7 | CC(N)C12CC3CC(CC(C3)C1)C2 (stereo not given) [RIMANTADINE] | Compound NOT metabolized
8 | CCN(C)C(=O)Oc1cccc([C@H](C)N(C)C)c1.O=C(O)C(O)C(O)C(=O)O [RIVASTIGMINE TARTRATE] | Compound metabolized

Conditions: human gut metagenome, 24 h, 2 µM
Remark: another data set of the same source

Row | Structure (SMILES) | Bacterial Biotransformation
9 | CC(N)C12CC3CC(CC(C3)C1)C2 (stereo not given) [RIMANTADINE] | Compound NOT metabolized
10 | CCN(C)C(=O)Oc1cccc([C@H](C)N(C)C)c1.O=C(O)C(O)C(O)C(=O)O [RIVASTIGMINE TARTRATE] | Compound NOT metabolized

Experiment: as §1, with “Z-014” for “WLS-170”, “rat” for “human”, “ERS12561814” for “ERS12561762”
Conditions: 2 µM

Row | Structure (SMILES) | Bacterial Biotransformation
11 | CC(N)C12CC3CC(CC(C3)C1)C2 (stereo not given) [RIMANTADINE] | Compound NOT metabolized
12 | CCN(C)C(=O)Oc1cccc([C@H](C)N(C)C)c1.O=C(O)C(O)C(O)C(=O)O [RIVASTIGMINE TARTRATE] | Compound NOT metabolized

Experiment: as §1, with “WLS-090” for “WLS-170”, “ERS12561753” for “ERS12561762”
Conditions: 2 µM

Row | Structure (SMILES) | Bacterial Biotransformation
13 | CC(N)C12CC3CC(CC(C3)C1)C2 (stereo not given) [RIMANTADINE] | Compound NOT metabolized
14 | CCN(C)C(=O)Oc1cccc([C@H](C)N(C)C)c1.O=C(O)C(O)C(O)C(=O)O [RIVASTIGMINE TARTRATE] | Compound NOT metabolized

Experiment: as §1, with “Z-021” for “WLS-170”, “to” for “to human gut”, “ERS12561820” for “ERS12561762”
Conditions: 2 µM

Row | Structure (SMILES) | Bacterial Biotransformation
15 | CC(N)C12CC3CC(CC(C3)C1)C2 (stereo not given) [RIMANTADINE] | Compound NOT metabolized
16 | CCN(C)C(=O)Oc1cccc([C@H](C)N(C)C)c1.O=C(O)C(O)C(O)C(=O)O [RIVASTIGMINE TARTRATE] | Compound NOT metabolized

Experiment: as §1, with “WLS-039” for “WLS-170”, “ERS12561746” for “ERS12561762”
Conditions: 2 µM

Row | Structure (SMILES) | Bacterial Biotransformation
17 | CC(N)C12CC3CC(CC(C3)C1)C2 (stereo not given) [RIMANTADINE] | Compound NOT metabolized
18 | CCN(C)C(=O)Oc1cccc([C@H](C)N(C)C)c1.O=C(O)C(O)C(O)C(=O)O [RIVASTIGMINE TARTRATE] | Compound metabolized

Experiment: as §1, with “Z-010” for “WLS-170”, “to” for “to human gut”, “ERS12561810” for “ERS12561762”
Conditions: 2 µM

Row | Structure (SMILES) | Bacterial Biotransformation
19 | CC(N)C12CC3CC(CC(C3)C1)C2 (stereo not given) [RIMANTADINE] | Compound NOT metabolized
20 | CCN(C)C(=O)Oc1cccc([C@H](C)N(C)C)c1.O=C(O)C(O)C(O)C(=O)O [RIVASTIGMINE TARTRATE] | Compound NOT metabolized

Experiment: as §1, with “Z-019” for “WLS-170”, “rat” for “human”, “ERS12561818” for “ERS12561762”
Conditions: 2 µM

Row | Structure (SMILES) | Bacterial Biotransformation
21 | CC(N)C12CC3CC(CC(C3)C1)C2 (stereo not given) [RIMANTADINE] | Compound NOT metabolized
22 | CCN(C)C(=O)Oc1cccc([C@H](C)N(C)C)c1.O=C(O)C(O)C(O)C(=O)O [RIVASTIGMINE TARTRATE] | Compound NOT metabolized

Experiment: as §1, with “Z-005” for “WLS-170”, “to” for “to human gut”, “ERS12561805” for “ERS12561762”
Conditions: 2 µM

Row | Structure (SMILES) | Bacterial Biotransformation
23 | CC(N)C12CC3CC(CC(C3)C1)C2 (stereo not given) [RIMANTADINE] | Compound NOT metabolized
24 | CCN(C)C(=O)Oc1cccc([C@H](C)N(C)C)c1.O=C(O)C(O)C(O)C(=O)O [RIVASTIGMINE TARTRATE] | Compound NOT metabolized

Conditions: human gut metagenome, 24 h, 2 µM
Remark: another data set of the same source

Row | Structure (SMILES) | Bacterial Biotransformation
25 | CC(N)C12CC3CC(CC(C3)C1)C2 (stereo not given) [RIMANTADINE] | Compound NOT metabolized
26 | CCN(C)C(=O)Oc1cccc([C@H](C)N(C)C)c1.O=C(O)C(O)C(O)C(=O)O [RIVASTIGMINE TARTRATE] | Compound NOT metabolized

Experiment: as §1, with “Z-001” for “WLS-170”, “mouse” for “human”, “ERS12561801” for “ERS12561762”
Conditions: 2 µM

Row | Structure (SMILES) | Bacterial Biotransformation
27 | CC(N)C12CC3CC(CC(C3)C1)C2 (stereo not given) [RIMANTADINE] | Compound NOT metabolized
28 | CCN(C)C(=O)Oc1cccc([C@H](C)N(C)C)c1.O=C(O)C(O)C(O)C(=O)O [RIVASTIGMINE TARTRATE] | Compound NOT metabolized

Experiment: as §1, with “Z-018” for “WLS-170”, “pig” for “human”, “ERS12561817” for “ERS12561762”
Conditions: 2 µM

Row | Structure (SMILES) | Bacterial Biotransformation
29 | CC(N)C12CC3CC(CC(C3)C1)C2 (stereo not given) [RIMANTADINE] | Compound NOT metabolized
30 | CCN(C)C(=O)Oc1cccc([C@H](C)N(C)C)c1.O=C(O)C(O)C(O)C(=O)O [RIVASTIGMINE TARTRATE] | Compound NOT metabolized

Experiment: as §1, with “Z-017” for “WLS-170”, “mouse” for “human”, “ERS12561816” for “ERS12561762”
Conditions: 2 µM

Row | Structure (SMILES) | Bacterial Biotransformation
31 | CC(N)C12CC3CC(CC(C3)C1)C2 (stereo not given) [RIMANTADINE] | Compound NOT metabolized
32 | CCN(C)C(=O)Oc1cccc([C@H](C)N(C)C)c1.O=C(O)C(O)C(O)C(=O)O [RIVASTIGMINE TARTRATE] | Compound NOT metabolized

Experiment: as §1, with “WLS-082” for “WLS-170”, “ERS12561751” for “ERS12561762”
Conditions: 2 µM

Row | Structure (SMILES) | Bacterial Biotransformation
33 | CC(N)C12CC3CC(CC(C3)C1)C2 (stereo not given) [RIMANTADINE] | Compound NOT metabolized
34 | CCN(C)C(=O)Oc1cccc([C@H](C)N(C)C)c1.O=C(O)C(O)C(O)C(=O)O [RIVASTIGMINE TARTRATE] | Compound NOT metabolized

Conditions: human gut metagenome, 24 h, 2 µM
Remark: another data set of the same source

Row | Structure (SMILES) | Bacterial Biotransformation
35 | CC(N)C12CC3CC(CC(C3)C1)C2 (stereo not given) [RIMANTADINE] | Compound NOT metabolized
36 | CCN(C)C(=O)Oc1cccc([C@H](C)N(C)C)c1.O=C(O)C(O)C(O)C(=O)O [RIVASTIGMINE TARTRATE] | Compound NOT metabolized

Conditions: human gut metagenome, 24 h, 2 µM
Remark: another data set of the same source

Row | Structure (SMILES) | Bacterial Biotransformation
37 | CC(N)C12CC3CC(CC(C3)C1)C2 (stereo not given) [RIMANTADINE] | Compound NOT metabolized
38 | CCN(C)C(=O)Oc1cccc([C@H](C)N(C)C)c1.O=C(O)C(O)C(O)C(=O)O [RIVASTIGMINE TARTRATE] | Compound metabolized

Experiment: as §1, with “WLS-027” for “WLS-170”, “ERS12561744” for “ERS12561762”
Conditions: 2 µM

Row | Structure (SMILES) | Bacterial Biotransformation
39 | CC(N)C12CC3CC(CC(C3)C1)C2 (stereo not given) [RIMANTADINE] | Compound NOT metabolized
40 | CCN(C)C(=O)Oc1cccc([C@H](C)N(C)C)c1.O=C(O)C(O)C(O)C(=O)O [RIVASTIGMINE TARTRATE] | Compound NOT metabolized
